From patent EP3943081A1, “OPTIC NEUROPATHY TREATMENT AND REDUCTION OF STEROID- INDUCED OXIDATIVE STRESS WITH STABILIZED POLYUNSATURATED SUBSTANCES” (Retrotope, Inc., priority 2014, dated 2015)

Columns and labels:
[1] = system: Dhcr7-deficient Neuro2a neuroblastoma cells; test: Oxysterol levels in Dhcr7-deficient Neuro2a neuroblastoma cells treated with fatty acid; type: cell-based; details: for levels of oxysterols associated with free radical induced oxidation: 20 micromolar, Dhcr7 expression depleted by RNA interference, 7-DHC accumulates
Experimental: Dhcr7-deficient Neuro2a neuroblastoma cells were treated with D2-linoleic acid, and non-deuterated linoleic acid ("Lin") was used in a control experiment. The level of Dhcr7 gene expression was depleted by RNA interference, leading to accumulation of 7-DHC in the cells. 7-DHC is 1-2 orders of magnitude more oxidizeable than linoleic acid, and so can easily initiate lipid peroxidation (See Yin et al., "Free Radical Lipid Peroxidation: Mechanisms and Analysis," Chem Rev. (2011), 111(10), 5944-5972).

[2] = system: Q-less (coq2, coq3, and coq5) yeast mutants; details: cited from earlier work; for sensitivity of Q-less yeast to treatment: compared with the wild-type parental strain
[3] = system: wild-type (the parental genetic background is strain W303-1B) cells; details: following a four hour treatment; 240 min; cited from earlier work

Row | Structure (SMILES) | levels of oxysterols associated with free radical induced oxidation [1] | sensitivity of Q-less yeast to treatment [2] | other results
1 | [2H]C([2H])(/C=C\CCCCC)/C=C\CCCCCCCC(=O)O [D2-Lin, 11,11-Dideutero-cis,cis-9,12-Octadecadienoic acid] | low levels | – | oxidative stress ([1]; 20 micromolar (same concentration as Lin), judged by oxysterol levels): did not induce oxidative stress
2 | CCCCC/C=C\C/C=C\CCCCCCCC(=O)O [Lin, cis, cis-9,12-Octadecadienoic acid] | substantially increased | – | –
3 | CCCCC/C=C\C/C=C\C/C=C\C/C=C\CCCC(=O)O [arachidonic acid] | – | hypersensitive | –
4 | CC/C=C\C/C=C\C/C=C\CCCCCCCC(=O)O [linolenic acid, cis,cis,cis-9,12,15-Octadecatrienoic acid] | – | – | viable wild-type cells [3]: 70%; viable Q-less yeast mutants ([2]; following a four hour treatment, 240 min): Less than 1%
5 | CCCCCCCC/C=C\CCCCCCCC(=O)O [oleic acid] | – | behave the same as the wild-type parental strain | –
